This is an account of results in publication PMC7766132, “N-Terminal Tagging with GFP Enhances Selectivity of Agitoxin 2 to Kv1.3-Channel Binding Site” (Toxins, 2020).

The test system of test [1] is mKate2-hKv1.3-del. To be noted: transient expression; cited from earlier work. From the text:
In the following experiments we have verified, if AgTx2-L2-GFP, His6-AgTx2-L2-GFP and GFP-L1-AgTx2 can be used as fluorescent probes of Kv1.3 channels on the membrane of eukaryotic cells. Recently, we have designed a plasmid that encoded the fluorescently labeled human Kv1.3 channel (mKate2-hKv1.3-del) with enhanced presentation on the membrane of eukaryotic cells. […] Previously, the ...

The test system of test [2] is KcsA-Kv1.6. Briefly: Competitive displacement of AgTx2-L3-GFP from KcsA-Kv1.6 on spheroplasts. To be noted: AgTx2-L3-GFP 20 nM; Figure 4. It counts as binding.
Test [3] deals with Kv1.6. To be noted: cited from earlier work. From the text: (§1) AgTx2 was successfully used in the form of a fluorescently labeled peptide (either RFP-AgTx2, or AgTx2 chemically labeled with tetramethylrhodamine, R-AgTx2) to probe binding affinities of various peptide toxins to different Kv1 channels. Extending color variety of AgTx2-based FP-Tx, we report here on the design of GFP-tagged AgTx2. Ability of GFP-tagged AgTx2 to interact with the pore blocker bi ... || To clarify the structural basis of the advanced selectivity of GFP-L2-AgTx2, a homologous GFP-L1-AgTx2 ligand was produced, in which the 45-aminoacid L1 linker was used instead of the L2 linker (Figure 1A). […] Fusion of AgTx2 with GFP was performed using the 20-aa glycine-rich L3 linker, whose sequence was similar to the L2 linker.

Test [4] relates to Kv1.1. The settings on record: cited from earlier work.
From the text: as §1

For test [5], the target named is KcsA-Kv1.3. The test can be described thus: Competitive displacement of His6-GFP-L2-AgTx2 from KcsA-Kv1.3 on spheroplasts. It counts as binding. To be noted: for Kd: fluorescent ligand His6-GFP-L2-AgTx2 20 nM, 2 h, 37 °C, Kap = IC50/(1 + [L]/[Kd]), mean ± SEM, n = 3, read-out: Apparent dissociation constant Kap of peptide blocker – Kv1.3-binding site complexes; for Concentration range of competition with His6-GFP-L2-AgTx2 for KcsA-Kv1.3: titration, His6-GFP-L2-AgTx2 20 nM, Figure 3F.

For test [6], the system named is KcsA-Kv1.3. Briefly: Competitive displacement of AgTx2-L3-GFP from KcsA-Kv1.3 on spheroplasts. The format is binding. To be noted: AgTx2-L3-GFP 20 nM; Figure 4.
Test [7] has as its system Kv1.2. To be noted: cited from earlier work. From the text:
Several fluorescently labeled peptide toxins were produced by chemical synthesis using reactive fluorescent organic dyes. The procedures are usually laborious, and the yields of the labeled products are often low. As an alternative, genetically encoded fluorescent protein-scorpion toxin chimeras (FP-Tx), which are the polypeptide ligands of potassium voltage-gated Kv1-channels were recently developed. […] AgTx2 was successfully used in the form of a fluorescently labeled peptide (either RFP-AgTx2, or AgTx2 chemically labeled with tetramethylrhodamine, R-AgTx2) to probe binding affinities of various peptide toxins to different Kv1 channels. Extending color variety of AgTx2-based FP-Tx, we report here on the design of GFP-tagged AgTx2. Ability of GFP-tagged AgTx2 to interact with the pore blocker bi ...

The subject of test [8] is mKate2-hKv1.3-del. The test can be described thus: Competitive displacement of GFP-L2-AgTx2 from mKate2-hKv1.3-del on HEK293 cells. The settings on record: GFP-L2-AgTx2 40 nM, AgTx2 400 nM, 40 min. The format is cell-based, human. From the text: KCNA3 gene encoding human Kv1.3 (hKv1.3, Accession number NP_002223.3) was a generous gift from Dr. A. Vassilevski. The gene was amplified using primers KCNA3-del-f1 and KCNA3-r1 (Table 2) to obtain KCNA3-del gene encoding N-terminally truncated protein, in which residues M1 through D52 were deleted. The truncated gene was inserted into BglII/HindIII sites of pmKate2-C plasmid (Evrogen, Moscow, Russia) to obtain the resulting plasmid pmKate2-KCNA3-del, which was further used for transfection of HEK293T cells. In the hybrid protein, mKate2-hKv1.3-del, mKate2 was linked to the N-terminus of the hKv1.3-del channel through the 9-aa flexible linker. […]
HEK 293 cells (from the collection of the Institute of Cytology RAS) were grown (37 °C, 5% CO2) in DMEM/F12 (Paneco, Russia) containing 5% fetal bovine serum (FBS, HyClone, Utah, USA) and 2 mM L-glutamine. […] Competitive binding was assessed by incubating cells with GFP-L2-AgTx2 (40 nM) and AgTx2 (400 nM) for 40 min. […]
Experiments with HEK293 cells were performed with a laser scanning confocal microscope Leica-SP2 (Leica Microsystems GmbH, Wetzlar, Germany). […] Fluorescence of GFP-tagged AgTx2 was excited at the 488 nm wavelength and recorded in the 495–535 nm range. Fluorescence of mKate2-hKv1.3 was excited at the 561 nm wavelength and recorded in the 650–700 nm range.

Test [9] has as its system KcsA-Kv1.3. Briefly: Competitive displacement of GFP-L2-AgTx2 from KcsA-Kv1.3 on spheroplasts. To be noted: for Displacement of GFP-L2-AgTx2 from complexes with KcsA-Kv1.3 (in words) / Concentration range of competition with GFP-L2-AgTx2 for KcsA-Kv1.3: GFP-L2-AgTx2 20 nM; for Displacement of GFP-L2-AgTx2 from complexes with KcsA-Kv1.3 (in words) / Kd: 2 h, 37 °C; for Displacement of GFP-L2-AgTx2 from complexes with KcsA-Kv1.3 (in words): Figure 2D; for Kd: fluorescent ligand GFP-L2-AgTx2 20 nM, Kap = IC50/(1 + [L]/[Kd]), mean ± SEM, n = 3, read-out: Apparent dissociation constant Kap of peptide blocker – Kv1.3-binding site complexes; for Concentration range of competition with GFP-L2-AgTx2 for KcsA-Kv1.3: titration, Figure 3E. The format is binding.

For test [10], the system named is KcsA-Kv1.1. The test can be described thus: Competitive displacement of AgTx2-L3-GFP from KcsA-Kv1.1 on spheroplasts. The settings on record: AgTx2-L3-GFP 20 nM; Figure 4. The format is binding.
For test [11], the system named is Kv1.3. To be noted: cited from earlier work. From the text:
AgTx2 was successfully used in the form of a fluorescently labeled peptide (either RFP-AgTx2, or AgTx2 chemically labeled with tetramethylrhodamine, R-AgTx2) to probe binding affinities of various peptide toxins to different Kv1 channels. Extending color variety of AgTx2-based FP-Tx, we report here on the design of GFP-tagged AgTx2. Ability of GFP-tagged AgTx2 to interact with the pore blocker bi ... || To verify specificity of GFP-L2-AgTx2 interaction with the Kv1.3 binding site on the surface of KcsA-Kv1.3-presenting spheroplasts, we have studied the effect of well-known potassium channel peptide blockers on this interaction (Figure 2D). […] Scillato ... || To clarify the structural basis of the advanced selectivity of GFP-L2-AgTx2, a homologous GFP-L1-AgTx2 ligand was produced, in which the 45-aminoacid L1 linker was used instead of the L2 linker (Figure 1A).

For test [12], the system named is KCa2.3. To be noted: known pharmacology, no reference given; cited from earlier work.

Regarding hongotoxin 1, the “Binding to mKate2-hKv1.3-del in eukaryotic cells (in words)” value in test [1] is listed as “bind specifically”.

Consider `CC[C@H](C)[C@@H]1NC(=O)[C@@H]2CSSC[C@@H]3NC(=O)[C@H](CCCCN)NC(=O)[C@H](CCCNC(=N)N)NC(=O)[C@H](CC(N)=O)NC(=O)[C@H](CCSC)NC(=O)[C@H](CSSC[C@H](NC(=O)[C@H](CO)NC(=O)[C@@H](NC(=O)[C@H](CC(N)=O)NC(=O)[C@@H](NC(=O)[C@@H]4CCCN4C(=O)[C@@H](NC(=O)CN)C(C)C)[C@@H](C)CC)C(C)C)C(=O)N[C@@H]([C@@H](C)O)C(=O)NCC(=O)N[C@@H](CO)C(=O)N4CCC[C@H]4C(=O)N[C@@H](CCC(N)=O)C(=O)N2)NC(=O)[C@H](CCCCN)NC(=O)CNC(=O)[C@H](Cc2ccccc2)NC(=O)[C@H](CCCNC(=N)N)NC(=O)[C@H](CCSC)NC(=O)CNC(=O)[C@H](C)NC(=O)[C@H](CC(=O)O)NC(=O)[C@H](CCCCN)NC(=O)[C@H](CSSC[C@@H](C(=O)N[C@H](C(=O)N2CCC[C@H]2C(=O)N[C@@H](CCCCN)C(=O)O)[C@@H](C)O)NC(=O)[C@H](Cc2c[nH]cn2)NC3=O)NC(=O)[C@@H]2CCCN2C(=O)[C@H](CCCCN)NC1=O` [AgTx2, agitoxin 2], for which the “Displacement of AgTx2-L3-GFP from complexes with KcsA-Kv1.6 (in words)” value (from here on “Displacement … with KcsA-Kv1.6 (in words)”) in test [2] is reported as “readily displaced”. In addition, in test [3], the “Affinity to Kv1.6 (in words)” value is “sub-nanomolar affinity”. Besides, the “Affinity to Kv1.1 (in words)” value in test [4] is listed as “sub-nanomolar affinity”. Also, in [5], the Kd is 0.07 ± 0.004 nM and the “Concentration range of competition with His6-GFP-L2-AgTx2 for KcsA-Kv1.3” value is recorded as “nanomolar concentration range”. The “Displacement of AgTx2-L3-GFP from complexes with KcsA-Kv1.3 (in words)” value in test [6] is given as “readily displaced”. For the same molecule, the “Affinity to Kv1.2 (in words)” value in test [7] is given as “nanomolar affinity”. Further, the “Displacement of GFP-L2-AgTx2 from mKate2-hKv1.3-del at the cell membrane (in words)” value in test [8] is “displaced totally”. In addition, in test [9], the “Displacement of GFP-L2-AgTx2 from complexes with KcsA-Kv1.3 (in words)” value is “low nanomolar”, the Kd is 0.23 ± 0.05 nM and the “Concentration range of competition with GFP-L2-AgTx2 for KcsA-Kv1.3” value is given as “nanomolar concentration range”. The “Displacement of AgTx2-L3-GFP from complexes with KcsA-Kv1.1 (in words)” value (“Displacement … with KcsA-Kv1.1 (in words)” below) in test [10] is on record as “readily displaced”. Further, in test [11], the “Affinity to Kv1.3 (in words)” value is reported as “sub-nanomolar affinity”; the “Selectivity for Kv1.3 over Kv1.1 and Kv1.6 channels” value is “ca. tenfold”.

Regarding `CC[C@H](C)[C@H](NC(=O)[C@H](CCC(=O)O)NC(=O)[C@@H](NC(=O)CN)C(C)C)C(=O)N[C@@H](CC(N)=O)C(=O)N[C@H](C(=O)N[C@@H](CCCCN)C(=O)N[C@H]1CSSC[C@@H]2NC(=O)[C@H](CCCCN)NC(=O)CNC(=O)[C@H](Cc3ccccc3)NC(=O)[C@H](CCCNC(=N)N)NC(=O)[C@H](CCSC)NC(=O)CNC(=O)[C@H](C)NC(=O)[C@H](CC(=O)O)NC(=O)[C@H](CCCCN)NC(=O)[C@@H]3CSSC[C@@H](C(=O)N[C@H](C(=O)N4CCC[C@H]4C(=O)N[C@@H](CCCCN)C(=O)O)[C@@H](C)O)NC(=O)[C@H](Cc4c[nH]cn4)NC(=O)[C@H](CSSC[C@H](NC(=O)[C@H](CCC(N)=O)NC(=O)[C@@H]4CCCN4C(=O)[C@H](CO)NC(=O)CNC(=O)[C@H](CO)NC1=O)C(=O)N[C@@H](CC(C)C)C(=O)N[C@@H](CCCCN)C(=O)N1CCC[C@H]1C(=O)N3)NC(=O)[C@H](CCCCN)NC(=O)[C@H](CCCNC(=N)N)NC(=O)[C@H](CC(N)=O)NC(=O)[C@H](CCSC)NC2=O)C(C)C` [KTx1, kaliotoxin 1], the “Displacement … with KcsA-Kv1.6 (in words)” value in test [2] was “readily displaced”. In [5], the Kd was 0.071 ± 0.007 nM and the “Concentration range of competition with His6-GFP-L2-AgTx2 for KcsA-Kv1.3” value is “nanomolar concentration range”. Moreover, the “Displacement of AgTx2-L3-GFP from complexes with KcsA-Kv1.3 (in words)” value in test [6] is recorded as “readily displaced”. Besides, in test [9], the “Displacement of GFP-L2-AgTx2 from complexes with KcsA-Kv1.3 (in words)” value was “low nanomolar”, the Kd amounted to 0.1 ± 0.04 nM and the “Concentration range of competition with GFP-L2-AgTx2 for KcsA-Kv1.3” value was “nanomolar concentration range”. Also, in [10], the “Displacement … with KcsA-Kv1.1 (in words)” value is listed as “readily displaced”.

In the case of Hetlaxin [HeTx], in [5], the Kd came out at 45 nM and the “Concentration range of competition with His6-GFP-L2-AgTx2 for KcsA-Kv1.3” value is reported as “higher concentrations”. For the same molecule, in test [9], the “Displacement of GFP-L2-AgTx2 from complexes with KcsA-Kv1.3 (in words)” value is recorded as “low micromolar concentrations”, the Kd is 39 nM and the “Concentration range of competition with GFP-L2-AgTx2 for KcsA-Kv1.3” value is given as “higher concentrations”. Besides, in test [11], the “Affinity to Kv1.3 channels (in words)” value is “moderate-affinity ligand”.

For Scillatoxin [ScTx], the “Displacement … with KcsA-Kv1.6 (in words)” value in test [2] is given as “did not compete”. Further, the “Pore block of KCa2.3 channel (in words)” value in [12] is reported as “pore blocker of KCa2.3 channel”. Moreover, the “Displacement of AgTx2-L3-GFP from complexes with KcsA-Kv1.3 (in words)” value in test [6] is given as “did not compete”. In addition, the “Displacement of GFP-L2-AgTx2 from complexes with KcsA-Kv1.3 (in words)” value in test [9] was “did not affect GFP-L2-AgTx2 binding to KcsA-Kv1.3”. Also, in test [10], the “Displacement … with KcsA-Kv1.1 (in words)” value is on record as “did not compete”. Besides, in test [11] (known pharmacology, no reference given), the “Interaction with Kv1.3 channel (in words)” value is “no ability to interact with Kv1.3 channel”.
